From US20250241894A1, “TREATMENT OF MENTAL DISORDERS” (GH RESEARCH IRELAND LIMITED, priority 2022, published 2025)

Legend:
[1] = test system: patients with postpartum depression (PPD); test: Open-label clinical trial of inhaled 5-MeO-DMT (single-day IDR) in postpartum depression; one patient so far, received 6 mg then 12 mg
Method: The single-arm, open-label clinical trial will involve 15 adult female patients with clinically diagnosed postpartum depression (PPD).
The second dose (12 mg) will only be administered if: • a. […] The 6 mg dose was safe and well-tolerated according to the investigator, • c. Any psychoactive effects (PsE) of the prior dose have subsided, and • d. Pre-dose vital parameters and forced expiratory volume in one second (FEV1) are in normal range, or if outside of the normal range, are not clinically significant according to the investigator. • 3. Similarly, a third dose (18 mg) will only be administered if: • a. […] The 12 mg dose was safe and well-tolerated according to the investigator, and • c. Any PsE of the prior dose have subsided, and • d. Pre-dose vital parameters and forced expiratory volume in one second (FEV1) are in normal range, or if outside of the normal range, are not clinically significant according to the investigator.
The patients will be assessed for a peak psychedelic experience (based on a patient-scored visual analogue scale, the PE scale), sedation, and other endpoints after dosing.
Follow-up visits are planned for Day 1, and Day 7 after the dosing day.
The following criteria must be met by all patients considered for clinical trial participation: • 1. Is female and in the age range between 18 and 45 years (inclusive) at screening. • 2. Has a body mass index (BMI) in the range of 18.5 and 35 kg/m^2 (inclusive) at screening. • 3. Meets the trial criteria for PPD as assessed by a trial psychiatrist or registered psychologist: • a. Diagnosis of Major Depressive Disorder without psychotic features, confirmed by the Mini-International Neuropsychiatric Interview (MINI), with peri-partum onset that began no earlier than gestation and no later than the first 4 weeks postpartum. • b. Has a Montgomery-Åsberg Depression Rating Scale (MADRS) total score of equal to or greater than 28 at screening and pre-dose on Day 0. • 6. […] Patients must have a negative pregnancy test at screening and on the pre-test day (Day-1). • 5. Is willing to delay start of other antidepressant or anxiety medication until after the end of the trial at Day 7 and agrees to keep any psychotherapy unchanged during the trial.

[2] = Pharmacokinetics of 5-MeO-DMT and bufotenine after a single inhaled dose; type: in vivo, human
Method: Blood samples were obtained at 1; 2; 4; 7; 10; 15; 20; 30; 45 min and 1; 1.5; 2; 3; 4 hours after administration.
PK parameters were generated by algebraic analysis of the concentration versus time plots for each individual. The analysis was carried out using the software Phoenix WinNonlin 6.3.

Q: What does the source list for `COc1ccc2[nH]cc(CCN(C)C)c2c1` [5-MeO-DMT]?
A: ECG (3 hours), safety laboratory analyses (7 days), CADSS (3 hours, 1 day, 7 days) ([1]; n=1): unremarkable; MADRS response (>=50% improvement) and remission (total <=10) criteria ([1]; n=1): fulfilled standard criteria for MADRS response; Onset of clinical response ([1]; n=1): ≤ 2 h; Time to clinical remission ([1]; n=1): ≤ 2 h; Tolerability of inhalation procedure ([1]; n=1): well tolerated with no inhalation-related adverse events; Total MADRS improvement ([1]; n=1, 2 hr): 24; Total MADRS score ([1]; n=1, 2 hr, baseline 29): 5; Reported adverse events (cramping left abdominal pain, headache) ([1]; n=1, Day 0): mild, short-lasting and resolved spontaneously; BPRS Tension improvement ([1]; n=1, Day 1): 5; Total MADRS improvement ([1]; n=1, Day 1): 29; Total MADRS score ([1]; n=1, Day 1, baseline 29): 0; Total MADRS improvement ([1]; n=1, Day 7): 28; BIMF functional domain Adjustment score ([1]; n=1, Day 7, Day 0 5, maximum 12): 6; BIMF functional domain Self-Care score ([1]; n=1, Day 7, Day 0 9, maximum 18): 13; BIMF functional domain Infant Care score ([1]; n=1, Day 7, Day 0 12, maximum 12): 12; BIMF functional domain Mother-Child Interaction score ([1]; n=1, Day 7, Day 0 15, maximum 18): 17; BIMF functional domain Social Support score ([1]; n=1, Day 7, Day 0 17, maximum 18): 18; BIMF functional domain Management score ([1]; n=1, Day 7, Day 0 28, maximum 36): 33; BIMF functional domain Psychological Well-being score ([1]; n=1, Day 7, Day 0 44, maximum 60): 53; BIMF item 19 (As time goes on, I am getting better at taking care of my baby) score ([1]; n=1, Day 7, Day 0 score 0): 1; BIMF item 16 (I worry about how other people judge me (as a mother)) score ([1]; n=1, Day 7, Day 0 score 3): 5; BIMF item 13 (I am taking good care of my physical needs) score ([1]; n=1, Day 7, Day 0 score 4): 5; BIMF item 5 (I am able to relax and enjoy time with my baby) score ([1]; n=1, Day 7, Day 0 score 5): 6; BIMF item 9 (I am getting enough encouragement from other people) score ([1]; n=1, Day 7, Day 0 score 5): 6; BIMF item 10 (I trust my own feelings (instincts) when it comes to taking care of my baby) score ([1]; n=1, Day 7, Day 0 score 5): 6; BIMF item 11 (I take a little time each week to do something for myself) score ([1]; n=1, Day 7, Day 0 score 5): 6; BIMF item 17 (I am able to take care of my baby and my other responsibilities) score ([1]; n=1, Day 7, Day 0 score 5): 5; BIMF item 3 (I am comfortable with the way I've chosen to feed my baby) score ([1]; n=1, Day 7, Day 0 score 6): 6; BIMF item 6 (There are people in my life that I can trust to care for my baby when I need a break) score ([1]; n=1, Day 7, Day 0 score 6): 6; BIMF item 8 (I am getting enough adult interaction) score ([1]; n=1, Day 7, Day 0 score 6): 6; BIMF item 12 (I am taking good care of my baby's physical needs) score ([1]; n=1, Day 7, Day 0 score 6): 6; BIMF item 14 (I make good decisions about my baby's health and well being) score ([1]; n=1, Day 7, Day 0 score 6): 6; BIMF item 20 (I am satisfied with the job I am doing as a new mother) score ([1]; n=1, Day 7, Day 0 score 6): 5; Total MADRS score ([1]; n=1, Day 7, baseline 29): 1; BIMF total score improvement ([1]; n=1, Day 7, from 92): 14%; BIMF TOTAL Δ ([1]; n=1, Day 7 vs Day 0): 13; BIMF functional domain Adjustment % Improvement ([1]; n=1, Day 7 vs Day 0): 20.00%; BIMF functional domain Adjustment Δ ([1]; n=1, Day 7 vs Day 0): 1; BIMF functional domain Infant Care % Improvement ([1]; n=1, Day 7 vs Day 0): 0.00%; BIMF functional domain Infant Care Δ ([1]; n=1, Day 7 vs Day 0): 0; BIMF functional domain Management % Improvement ([1]; n=1, Day 7 vs Day 0): 18%; BIMF functional domain Management Δ ([1]; n=1, Day 7 vs Day 0): 5; BIMF functional domain Mother-Child Interaction Δ ([1]; n=1, Day 7 vs Day 0): 2; BIMF functional domain Psychological Well-being Δ ([1]; n=1, Day 7 vs Day 0): 9; BIMF functional domain Self-Care % Improvement ([1]; n=1, Day 7 vs Day 0): 44%; BIMF functional domain Self-Care Δ ([1]; n=1, Day 7 vs Day 0): 4; BIMF functional domain Social Support Δ ([1]; n=1, Day 7 vs Day 0): 1; BIMF item 1 (I am a good mother) Δ ([1]; n=1, Day 7 vs Day 0): 0; BIMF item 2 (I feel rested) Δ ([1]; n=1, Day 7 vs Day 0): 2; BIMF item 3 (I am comfortable with the way I've chosen to feed my baby) Δ ([1]; n=1, Day 7 vs Day 0): 0; BIMF item 4 (My baby and I understand each other) Δ ([1]; n=1, Day 7 vs Day 0): 0; BIMF item 5 (I am able to relax and enjoy time with my baby) Δ ([1]; n=1, Day 7 vs Day 0): 1; BIMF item 6 (There are people in my life that I can trust to care for my baby when I need a break) Δ ([1]; n=1, Day 7 vs Day 0): 0; BIMF item 8 (I am getting enough adult interaction) Δ ([1]; n=1, Day 7 vs Day 0): 0; BIMF item 9 (I am getting enough encouragement from other people) Δ ([1]; n=1, Day 7 vs Day 0): 1; BIMF item 10 (I trust my own feelings (instincts) when it comes to taking care of my baby) Δ ([1]; n=1, Day 7 vs Day 0): 1; BIMF item 11 (I take a little time each week to do something for myself) Δ ([1]; n=1, Day 7 vs Day 0): 1; BIMF item 12 (I am taking good care of my baby's physical needs) Δ ([1]; n=1, Day 7 vs Day 0): 0; BIMF item 13 (I am taking good care of my physical needs) Δ ([1]; n=1, Day 7 vs Day 0): 1; BIMF item 14 (I make good decisions about my baby's health and well being) Δ ([1]; n=1, Day 7 vs Day 0): 0; BIMF item 15 (My baby and I are getting into a routine) Δ ([1]; n=1, Day 7 vs Day 0): 1; BIMF item 16 (I worry about how other people judge me (as a mother)) Δ ([1]; n=1, Day 7 vs Day 0): 2; BIMF item 17 (I am able to take care of my baby and my other responsibilities) Δ ([1]; n=1, Day 7 vs Day 0): 0; BIMF item 18 (Anxiety or worry often interferes with my mothering ability) Δ ([1]; n=1, Day 7 vs Day 0): 3; BIMF item 19 (As time goes on, I am getting better at taking care of my baby) Δ ([1]; n=1, Day 7 vs Day 0): 1; BIMF item 20 (I am satisfied with the job I am doing as a new mother) Δ ([1]; n=1, Day 7 vs Day 0): −1; BPRS Tension improvement ([1]; n=1, Discharge): 5; Vital parameters ([1]; n=1, shortly after administration): temporary, clinically non-relevant increase in heart rate and blood pressure; Detectability in plasma ([2]; after 3 hours, 6, 12, 18 mg): no longer detectable; Accumulation upon repeated administration ([2]; within a time frame of 1 to 4 hours): No accumulation
